How the values were obtained:
Kr cells = test: Process elaboration and inhibition of cell proliferation in Kr cells; format: cell-based, Drosophila; conditions: at saturating concentrations
Protocol: The invention will now be further described by way of exemplification and by reference to the drawings in which; • Figure 1. Both 20-hydroxyecdysone and Example No. 3 induce process elaboration (A) and inhibition of cell proliferation (B) in Kr cells in a dose-dependent manner. Initial cell density was 2 X 10^6 cells/ml; after incubation of 1 ml aliquots of the cells with the compound for 48 hours the cells were triturated gently and the percentage of cells responding (with processes longer than approximately 17 um, see Cherbas et al. 189 Wilhelm Roux's Arch. 1 (1980)) and total cell density was determined by hemocytom- eter counting, relative to ethanol (1 ul)-treated controls. Determinations were in triplicate for each dose. […] Induction of acetylcholinesterase by varying concentrations of 20-hydroxyecdysone and Example No. 3. Kr cells at an initial density of 3 X 10^6 cells/ml (10 ml per sample) were incubated with the agonist for three days. After harvesting, by centrifugation at 3000 X g, the cell pellets were washed with Robb's Drosophila saline (18, 2 X 5 ml) at 4 ° C, then lysed by sonication in 1 ml of phosphate buffer (pH 7.4, I = 0.1 M) containing 0.5 M NaCI, 0.25 M EDTA and 0.5% TRITON? X-100. See Cherbas, 197 Science 275 (1977). Triton is a registered trademark of Rohm and Haas Company for a alkylaryl polyoxyethylene glycol surfactant. After centrifugation at 16,000 X g, the supernatants were assayed for acetylcholinesterase activity by an adaptation of the method of Ellman et al., 7 Biochem. Pharmacol. 88 (1961), by subtracting out any 412 nm absorbance observed in incubations in the presence of 2 X 10-5 eserine sulfate. Thus reaction mixtures contained 50 ul of enzyme extract, 20 ul eserine (blank tubes only) and 1.0 ml of 0.5 mM acetylthiocholine, 0.3 mM dithiobisnitrobenzoic acid in phosphate buffer (pH 7.4, I = 0.1 M). Incubations were at 25 ° C for two hours; reactions in active tubes were terminated by addition of eserine. Absorbance at 412 nm was then measured. Protein concentration in extracts was measured by the Biorad method. […] Scatchard plot of ^3H-ponasterone A binding to Kr cell cytosolic receptor extracts in the presence of differing concentrations of Example No. 3. Cytosolic extract preparation and ecdysteroid receptor assays were essentially as described in Sage, 111 Meth. in Enzymol. 458 (1985). Example No. 3 was added in 1 ul DMSO to 50 ul of radioligand in 10 mM Tris buffer (pH 7.2) and 50 ul of undiluted cytosol extract. […] Ecdysteroid titers were measured by a radioimmunoassay adapted from Warren et al., 40 Experientia 393 (1984) with Protein A-Staph. aureus suspension (Sigma) used as the reagent to separate bound from free ligand. […]

ecdysone receptor = target: T1, ecdysone receptor (Drosophila melanogaster, UniProt P34021); test: ^3H-ponasterone A binding to / displacement from Kr cell cytosolic receptor extracts; conditions: for displacement of ^3H-ponasterone A from cytosolic receptor extracts: at saturating concentrations
T1 construct: endogenous in cells; host or cells: Drosophila Kr (Kc) cells, undiluted cytosolic extract
T1 sequence (P34021 1-878): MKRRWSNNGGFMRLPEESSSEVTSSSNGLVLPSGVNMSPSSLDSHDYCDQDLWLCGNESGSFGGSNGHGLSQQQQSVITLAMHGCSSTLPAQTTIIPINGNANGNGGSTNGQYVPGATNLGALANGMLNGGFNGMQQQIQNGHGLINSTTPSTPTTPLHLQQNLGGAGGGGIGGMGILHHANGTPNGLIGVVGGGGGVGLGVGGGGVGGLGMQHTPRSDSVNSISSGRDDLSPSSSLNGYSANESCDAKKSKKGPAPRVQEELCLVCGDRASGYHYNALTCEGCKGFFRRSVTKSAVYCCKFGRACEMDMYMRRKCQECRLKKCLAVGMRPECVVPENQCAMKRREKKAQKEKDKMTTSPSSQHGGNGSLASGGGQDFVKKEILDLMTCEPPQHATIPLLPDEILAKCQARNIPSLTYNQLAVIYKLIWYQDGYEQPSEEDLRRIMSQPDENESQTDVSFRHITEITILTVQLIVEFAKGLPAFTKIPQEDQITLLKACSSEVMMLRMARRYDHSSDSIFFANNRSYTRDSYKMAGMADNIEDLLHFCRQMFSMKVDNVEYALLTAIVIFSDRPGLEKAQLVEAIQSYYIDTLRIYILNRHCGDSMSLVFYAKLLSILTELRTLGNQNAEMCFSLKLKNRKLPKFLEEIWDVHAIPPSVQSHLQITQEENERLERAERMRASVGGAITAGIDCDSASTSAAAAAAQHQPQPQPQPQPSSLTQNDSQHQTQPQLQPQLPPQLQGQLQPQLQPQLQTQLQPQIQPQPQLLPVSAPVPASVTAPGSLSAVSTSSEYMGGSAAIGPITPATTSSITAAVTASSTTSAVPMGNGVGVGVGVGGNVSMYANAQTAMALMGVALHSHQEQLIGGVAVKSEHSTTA
T1 sequence (P20153 1-508 partner): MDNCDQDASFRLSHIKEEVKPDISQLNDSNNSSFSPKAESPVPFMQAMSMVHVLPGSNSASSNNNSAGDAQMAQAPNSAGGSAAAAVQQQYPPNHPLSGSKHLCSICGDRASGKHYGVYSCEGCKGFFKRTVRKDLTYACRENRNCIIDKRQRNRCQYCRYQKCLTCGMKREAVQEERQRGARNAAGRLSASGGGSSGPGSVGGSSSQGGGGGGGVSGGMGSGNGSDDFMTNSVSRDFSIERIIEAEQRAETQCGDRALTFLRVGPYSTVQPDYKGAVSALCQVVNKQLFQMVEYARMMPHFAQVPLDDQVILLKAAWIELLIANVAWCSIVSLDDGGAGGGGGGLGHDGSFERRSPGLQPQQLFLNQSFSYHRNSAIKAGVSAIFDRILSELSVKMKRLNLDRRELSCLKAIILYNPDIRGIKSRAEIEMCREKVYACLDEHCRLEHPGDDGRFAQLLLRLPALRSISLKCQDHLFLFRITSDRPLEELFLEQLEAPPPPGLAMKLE
Protocol: The invention will now be further described by way of exemplification and by reference to the drawings in which; • Figure 1. Both 20-hydroxyecdysone and Example No. 3 induce process elaboration (A) and inhibition of cell proliferation (B) in Kr cells in a dose-dependent manner. Initial cell density was 2 X 10^6 cells/ml; after incubation of 1 ml aliquots of the cells with the compound for 48 hours the cells were triturated gently and the percentage of cells responding (with processes longer than approximately 17 um, see Cherbas et al. 189 Wilhelm Roux's Arch. 1 (1980)) and total cell density was determined by hemocytom- eter counting, relative to ethanol (1 ul)-treated controls. Determinations were in triplicate for each dose. […] Induction of acetylcholinesterase by varying concentrations of 20-hydroxyecdysone and Example No. 3. Kr cells at an initial density of 3 X 10^6 cells/ml (10 ml per sample) were incubated with the agonist for three days. After harvesting, by centrifugation at 3000 X g, the cell pellets were washed with Robb's Drosophila saline (18, 2 X 5 ml) at 4 ° C, then lysed by sonication in 1 ml of phosphate buffer (pH 7.4, I = 0.1 M) containing 0.5 M NaCI, 0.25 M EDTA and 0.5% TRITON? X-100. See Cherbas, 197 Science 275 (1977). Triton is a registered trademark of Rohm and Haas Company for a alkylaryl polyoxyethylene glycol surfactant. After centrifugation at 16,000 X g, the supernatants were assayed for acetylcholinesterase activity by an adaptation of the method of Ellman et al., 7 Biochem. Pharmacol. 88 (1961), by subtracting out any 412 nm absorbance observed in incubations in the presence of 2 X 10-5 eserine sulfate. Thus reaction mixtures contained 50 ul of enzyme extract, 20 ul eserine (blank tubes only) and 1.0 ml of 0.5 mM acetylthiocholine, 0.3 mM dithiobisnitrobenzoic acid in phosphate buffer (pH 7.4, I = 0.1 M). Incubations were at 25 ° C for two hours; reactions in active tubes were terminated by addition of eserine. Absorbance at 412 nm was then measured. Protein concentration in extracts was measured by the Biorad method. […] Scatchard plot of ^3H-ponasterone A binding to Kr cell cytosolic receptor extracts in the presence of differing concentrations of Example No. 3. Cytosolic extract preparation and ecdysteroid receptor assays were essentially as described in Sage, 111 Meth. in Enzymol. 458 (1985). Example No. 3 was added in 1 ul DMSO to 50 ul of radioligand in 10 mM Tris buffer (pH 7.2) and 50 ul of undiluted cytosol extract. After incubation overnight at 0.5 ° C, bound label was separated from free by addition of 300 ul 1% HCI-washed charcoal (Sigma) and 0.1% Dextran T70 (Pharmacia) in Tris buffer, centrifugation (13,000 X g, 3 min, 4 ° C) and liquid scintillation counting of a 300 ul aliquot of the supernatant in 15 ml Hydrofluor (National Diagnostics). Points are means of duplicate determinations. […] Relative ability of 20 hydroxyecdysone and Example No. 3 to displace ^3H-ponasterone A from cytosolic receptor extracts. Conditions were as in Figure 3 except that only 0.5 nM ponasterone A was used. • Points are means of duplicate determinations. For 20-hydroxyecdysone EC50 = 0.1 uM while for Example No. 3 EC50 = 3.0 uM. Control binding = 10 femtomoles ^3H-ponasterone A bound per mg cytosol protein. • Figure 4. Effects of 10 ppm Example No. 3 administered in artificial diet to newly ecdysed fourth instar (L4) M. sexta, monitoring (A)immunoreactive hemolymph ecdysteroid titers and (B)weight gain. Ecdysteroid titers were measured by a radioimmunoassay adapted from Warren et al., 40 Experientia 393 (1984) with Protein A-Staph. aureus suspension (Sigma) used as the reagent to separate bound from free ligand. The antiecdysone antiserum was formed by reaction of 20-hydroxyecdysone with carboxymethox- yamine resulting in the corresponding ecdysteroid 6-oxime acid. […] All samples were diluted appropriately in borate buffer pH 8.0 and assayed in duplicate. […]

antiecdysone antiserum = test: Binding by antiecdysone antiserum (radioimmunoassay); conditions: ^3H-alpha ecdysone as the radioligand
Protocol: The invention will now be further described by way of exemplification and by reference to the drawings in which; • Figure 1. Both 20-hydroxyecdysone and Example No. 3 induce process elaboration (A) and inhibition of cell proliferation (B) in Kr cells in a dose-dependent manner. Initial cell density was 2 X 10^6 cells/ml; after incubation of 1 ml aliquots of the cells with the compound for 48 hours the cells were triturated gently and the percentage of cells responding (with processes longer than approximately 17 um, see Cherbas et al. 189 Wilhelm Roux's Arch. 1 (1980)) and total cell density was determined by hemocytom- eter counting, relative to ethanol (1 ul)-treated controls. Determinations were in triplicate for each dose. […] Induction of acetylcholinesterase by varying concentrations of 20-hydroxyecdysone and Example No. 3. Kr cells at an initial density of 3 X 10^6 cells/ml (10 ml per sample) were incubated with the agonist for three days. After harvesting, by centrifugation at 3000 X g, the cell pellets were washed with Robb's Drosophila saline (18, 2 X 5 ml) at 4 ° C, then lysed by sonication in 1 ml of phosphate buffer (pH 7.4, I = 0.1 M) containing 0.5 M NaCI, 0.25 M EDTA and 0.5% TRITON? X-100. See Cherbas, 197 Science 275 (1977). Triton is a registered trademark of Rohm and Haas Company for a alkylaryl polyoxyethylene glycol surfactant. After centrifugation at 16,000 X g, the supernatants were assayed for acetylcholinesterase activity by an adaptation of the method of Ellman et al., 7 Biochem. Pharmacol. 88 (1961), by subtracting out any 412 nm absorbance observed in incubations in the presence of 2 X 10-5 eserine sulfate. […] Absorbance at 412 nm was then measured. Protein concentration in extracts was measured by the Biorad method. […] Ecdysteroid titers were measured by a radioimmunoassay adapted from Warren et al., 40 Experientia 393 (1984) with Protein A-Staph. aureus suspension (Sigma) used as the reagent to separate bound from free ligand. […]

## O=C(NC(=O)c1c(F)cccc1F)Nc1ccc(Cl)cc1 [1-(4-chloro-phenyl)-3-(2,6-difluorobenzoyl)urea]
Kr cells
  ecdysone-like responses in whole Kr cells: failed to produce ecdysone-like responses
Ecdysone receptor
  displacement of ^3H-ponasterone A from cytosolic receptor extracts: did not displace

## CC(C)CC[C@@H](O)[C@](C)(O)[C@H]1CC[C@@]2(O)C3=CC(=O)[C@@H]4C[C@@H](O)[C@@H](O)C[C@]4(C)[C@H]3CC[C@]12C [^3H-ponasterone A, ponasterone A]
Ecdysone receptor; Figure 3A legend, in the absence of Example No. 3
  Bmax: 0.79 nm
Ecdysone receptor; Scatchard plot, in the absence of Example No. 3
  Kd: 0.29 nM
Ecdysone receptor; text b415, in the absence of Example No. 3
  Bmax: 0.71 nM

## C[C@H]([C@H](O)CCC(C)(C)O)[C@H]1CC[C@@]2(O)C3=CC(=O)[C@@H]4C[C@@H](O)[C@@H](O)C[C@]4(C)[C@H]3CC[C@]12C [alpha-ecdysone, reference compound]
Antiecdysone antiserum
  fold greater affinity than 20-hydroxyecdysone: 2.7 fold

## O=C(NC(=O)c1c(F)cccc1F)Nc1cc(Cl)c(Oc2ncc(C(F)(F)F)cc2Cl)c(Cl)c1 [1-(3,5-dichloro-4-(3-chloro-5-trifluoromethyl-2-pyridyloxy)phenyl)-3-(2,6-difluorobenzoyl)urea]
Kr cells
  ecdysone-like responses in whole Kr cells: failed to produce ecdysone-like responses
Ecdysone receptor
  displacement of ^3H-ponasterone A from cytosolic receptor extracts: did not displace

— patent publication EP0361645B1, “Organic hydrazine derivatives for pharmaceutical use” (ROHM AND HAAS COMPANY, priority 1988, dated 1990)
